Source: ChEMBL document CHEMBL3813626, “Synthesis, antimalarial properties and 2D-QSAR studies of novel triazole-quinine conjugates” (Bioorg Med Chem, 2016)

system: Plasmodium falciparum; test: Antimalarial activity against blood stage Plasmodium falciparum 3D7 infected in human erythrocytes assessed as reduction in parasitemia after 72 hrs by SYBR green I fluorescence-based method; assay type: functional, organism-based; settings: 3D7, 72 h

| SMILES | IC50 |
| --- | --- |
| C=C[C@H]1CN2CC[C@H]1C[C@@H]2[C@H](OCc1cn(-c2ccccc2Cl)nn1)c1ccnc2ccc(OC)cc12 | 20000 nM |
| C=C[C@H]1CN2CC[C@H]1C[C@@H]2[C@H](OCc1cn(-c2ccccn2)nn1)c1ccnc2ccc(OC)cc12 | 5700 nM |
| C=C[C@H]1CN2CC[C@H]1C[C@@H]2[C@H](OCCc1cn(-c2ccc([N+](=O)[O-])cc2)nn1)c1ccnc2ccc(OC)cc12 | 345 nM |
| C=C[C@H]1CN2CC[C@H]1C[C@@H]2[C@H](OCc1cn(CC(=O)N[C@@H](Cc2ccccc2)C(=O)O)nn1)c1ccnc2ccc(OC)cc12 | 5500 nM |
| C=C[C@H]1CN2CC[C@H]1C[C@@H]2[C@H](OCCc1cn(Cc2ccccc2)nn1)c1ccnc2ccc(OC)cc12 | 30 nM |
| C=C[C@H]1CN2CC[C@H]1C[C@@H]2[C@H](OCc1cn(-c2ccc([N+](=O)[O-])cc2)nn1)c1ccnc2ccc(OC)cc12 | 640 nM |
| C=C[C@H]1CN2CC[C@H]1C[C@@H]2[C@H](OCc1cn(-c2ccccc2C#N)nn1)c1ccnc2ccc(OC)cc12 | 1000 nM |
| C=C[C@H]1CN2CC[C@H]1C[C@@H]2[C@H](OCc1cn(Cc2ccc(C)cc2)nn1)c1ccnc2ccc(OC)cc12 | 450 nM |
| C=C[C@H]1CN2CC[C@H]1C[C@@H]2[C@H](OCc1cn(CC(=O)N[C@@H](CC(C)C)C(=O)O)nn1)c1ccnc2ccc(OC)cc12 | 12000 nM |
| C=C[C@H]1CN2CC[C@H]1C[C@@H]2[C@H](OCc1cn(-c2ccc(Cl)cc2)nn1)c1ccnc2ccc(OC)cc12 | 900 nM |
| C=C[C@H]1CN2CC[C@H]1C[C@@H]2[C@H](OCc1cn([C@@H](C)C(=O)O)nn1)c1ccnc2ccc(OC)cc12 | 41000 nM |
| C=C[C@H]1CN2CC[C@H]1C[C@@H]2[C@H](OCCc1cn(-c2ccc(C)cc2)nn1)c1ccnc2ccc(OC)cc12 | 40 nM |
| C=C[C@H]1CN2CC[C@H]1C[C@@H]2[C@H](OCc1cn(-c2cccc(C#N)c2)nn1)c1ccnc2ccc(OC)cc12 | 2000 nM |
| C=C[C@H]1CN2CC[C@H]1C[C@@H]2[C@H](OCc1cn([C@@H](CC(C)C)C(=O)O)nn1)c1ccnc2ccc(OC)cc12 | 31000 nM |
| C=C[C@H]1CN2CC[C@H]1C[C@@H]2[C@H](OCc1cn([C@@H](Cc2ccccc2)C(=O)O)nn1)c1ccnc2ccc(OC)cc12 | 7700 nM |
| C=C[C@H]1CN2CC[C@H]1C[C@@H]2[C@H](OCCc1cn(-c2ccc(OC)cc2)nn1)c1ccnc2ccc(OC)cc12 | 43 nM |

| SMILES | IC50 |
| --- | --- |
| C=C[C@H]1CN2CC[C@H]1C[C@@H]2[C@H](OCc1cn([C@H](C(=O)O)C(C)C)nn1)c1ccnc2ccc(OC)cc12 | 20000 nM |
| C=C[C@H]1CN2CC[C@H]1C[C@@H]2[C@H](OCc1cn(-c2ccc(OC)cc2)nn1)c1ccnc2ccc(OC)cc12 | 2200 nM |
| C=C[C@H]1CN2CC[C@H]1C[C@@H]2[C@H](OCCc1cn(CCCc2ccccc2)nn1)c1ccnc2ccc(OC)cc12 | 27 nM |
| C=C[C@H]1CN2CC[C@H]1C[C@@H]2[C@H](OCc1cn(CC(OC)OC)nn1)c1ccnc2ccc(OC)cc12 | 3400 nM |
| C=C[C@H]1CN2CC[C@H]1C[C@@H]2[C@H](OCc1cn(Cc2ccc([N+](=O)[O-])cc2)nn1)c1ccnc2ccc(OC)cc12 | 1200 nM |
| C=C[C@H]1CN2CC[C@H]1C[C@@H]2[C@H](OCCc1cn(-c2ccccc2Cl)nn1)c1ccnc2ccc(OC)cc12 | 37 nM |
| C=C[C@H]1CN2CC[C@H]1C[C@@H]2[C@H](OCc1cn(-c2ccccc2[N+](=O)[O-])nn1)c1ccnc2ccc(OC)cc12 | 1300 nM |
| C=C[C@H]1CN2CC[C@H]1C[C@@H]2[C@H](OCCc1cn(-c2ccccc2[N+](=O)[O-])nn1)c1ccnc2ccc(OC)cc12 | 3300 nM |
| C=C[C@H]1CN2CC[C@H]1C[C@@H]2[C@H](OCc1cn(/C=C/n2nnc3ccccc32)nn1)c1ccnc2ccc(OC)cc12 | 1500 nM |
| C=C[C@H]1CN2CC[C@H]1C[C@@H]2[C@H](OCc1cn(Cn2nnc3ccccc32)nn1)c1ccnc2ccc(OC)cc12 | 4800 nM |
| C=C[C@H]1CN2CC[C@H]1C[C@H]2[C@H](O)c1ccnc2ccc(OC)cc12 [QUININE] | 58 nM |
| C=C[C@H]1CN2CC[C@H]1C[C@@H]2[C@H](OCc1cn(Cc2ccccc2)nn1)c1ccnc2ccc(OC)cc12 | 790 nM |
| C=C[C@H]1CN2CC[C@H]1C[C@@H]2[C@H](OCc1cn([C@H](C(=O)N(CC)CC)C(C)C)nn1)c1ccnc2ccc(OC)cc12 | 880 nM |
| C=C[C@H]1CN2CC[C@H]1C[C@@H]2[C@H](OCc1cn(CCCc2ccccc2)nn1)c1ccnc2ccc(OC)cc12 | 890 nM |
| C=C[C@H]1CN2CC[C@H]1C[C@@H]2[C@H](OCc1cn([C@@H](Cc2c[nH]c3ccccc23)C(=O)O)nn1)c1ccnc2ccc(OC)cc12 | 8400 nM |
| C=C[C@H]1CN2CC[C@H]1C[C@@H]2[C@H](OCCc1cn(-c2ccc(Cl)cc2)nn1)c1ccnc2ccc(OC)cc12 | 41 nM |
